30 compounds from BindingDB's records for doi:10.1021/ml300172p (2012) can be followed below.

The first assay is described as follows: Inhibition of Smo in mouse C3H10T1/2 cells assessed as inhibition of human Shh-induced cell differentiation after 48 hrs by alkaline phosphatase reporter assay.
Take `C[C@@H]1NC(=O)[C@H](CC(=O)NCc2ccc(Cl)cc2)C/C=C/CCC(=O)O[C@@H]1c1ccccc1`: the IC50 stood at 15 µM.

For the compound `C[C@H]1NC(=O)[C@H](CC(=O)NCc2ccc(Cl)cc2)C/C=C/CCC(=O)O[C@@H]1c1ccccc1`, the IC50 was determined as 11 µM.

Regarding `O=C(C[C@@H]1C/C=C/CCC(=O)OC[C@@H]2CCCN2C1=O)NCc1ccc(Cl)cc1`, the IC50 turned out to be 15 µM.

As for `O=C(C[C@@H]1C/C=C/CCC(=O)N[C@H](c2ccccc2)COC1=O)NCc1ccc(Cl)cc1`, the IC50 was 5 µM.

Regarding `O=C(C[C@@H]1C/C=C/CCC(=O)N[C@@H]2c3ccccc3C[C@@H]2OC1=O)NCc1ccc(Cl)cc1`, the IC50 is more than 25 µM.

For the compound `C[C@H]1[C@@H](c2ccccc2)OC(=O)CC/C=C/C[C@@H](CC(=O)NCc2ccc(Cl)cc2)C(=O)N1C`, the IC50 came out at 8 µM.

Turning to `O=C(C[C@@H]1C/C=C/CCC(=O)N[C@@H](c2ccccc2)COC1=O)NCc1ccc(Cl)cc1`, the IC50 is 20 µM.

`C[C@H]1C/C=C/C[C@@H](CC(=O)NCc2ccc(Cl)cc2)C(=O)OC[C@@H](c2ccccc2)NC1=O`: the IC50 is 8 µM.

In the case of `O=C(C[C@@H]1C/C=C/C[C@H](Cc2ccccc2)C(=O)N[C@H](c2ccccc2)COC1=O)NCc1ccc(Cl)cc1`, the IC50 was found to be 6 µM.

Turning to `CC(C)N[C@H]1C/C=C/C[C@@H](CC(=O)NCc2ccc(Cl)cc2)C(=O)NC[C@@H](c2ccccc2)OC1=O`, the IC50 is more than 25 µM.

On to `C[C@H]1C/C=C\C[C@@H](CC(=O)NCc2ccc(Cl)cc2)C(=O)OC[C@@H](c2ccccc2)NC1=O`, for which the IC50 amounted to 4 µM.

On to `C[C@H]1[C@@H](c2ccccc2)OC(=O)CCCCC[C@@H](CC(=O)NCc2ccc(Cl)cc2)C(=O)N1C`, for which the IC50 came to 11 µM.

For `C=CCCC(=O)O[C@@H](CNC(=O)[C@@H](CC=C)CC(=O)NCc1ccc(Cl)cc1)c1ccccc1`, the IC50 was more than 25 µM.

On to `C[C@@H]1C/C=C/CCC(=O)N[C@H](c2ccccc2)COC1=O`, for which the IC50 was more than 25 µM.

As to `CC(=O)N[C@@H]1C/C=C/CCC(=O)N[C@H](c2ccccc2)COC1=O`, the IC50 is more than 25 µM.

Turning to `CN1CCN(C(=O)C[C@@H]2C/C=C/CCC(=O)O[C@H](c3ccccc3)CNC2=O)CC1`, the IC50 is more than 25 µM.

For the compound `O=C(C[C@@H]1C/C=C/CCC(=O)O[C@H](c2ccccc2)CNC1=O)NCCCC(F)(F)F`, the IC50 is 4 µM.

With `CC(C)(C)OC(=O)C[C@@H]1C/C=C/CCC(=O)N[C@H](c2ccccc2)COC1=O`, the IC50 is 7 µM.

On to `CN1C[C@@H](c2ccccc2)OC(=O)CC/C=C/C[C@@H](Cc2ccc(Cl)cc2)C1=O`, for which the IC50 came to 8 µM.

Turning to `O=C(C[C@@H]1C/C=C/CCC(=O)O[C@H](c2ccccc2)CNC1=O)NCc1cccc(Cl)c1`, the IC50 was 5 µM.

For the compound `O=C(CN1C/C=C/CCC(=O)N[C@H](c2ccccc2)COC1=O)NCc1ccc(Cl)cc1`, the IC50 was more than 25 µM.

For `O=C(C[C@@H]1C/C=C/CCC(=O)N[C@H](C2CCCCC2)COC1=O)NCc1ccc(Cl)cc1`, the IC50 was 5 µM.

For `O=C(C[C@@H]1C/C=C/CCC(=O)N[C@H](Cc2ccccc2)COC1=O)NCc1ccc(Cl)cc1`, the IC50 is 4 µM.

For the compound `CCCC[C@@H]1COC(=O)[C@H](CC(=O)NCc2ccc(Cl)cc2)C/C=C/CCC(=O)N1`, the IC50 was more than 10 µM.

With `CC(C)[C@@H]1COC(=O)[C@H](CC(=O)NCc2ccc(Cl)cc2)C/C=C/CCC(=O)N1`, the IC50 was 23 µM.

For the compound `O=C(C[C@@H]1C/C=C/CCC(=O)N[C@H](c2ccc(F)cc2)COC1=O)NCc1ccc(Cl)cc1`, the IC50 worked out at 5 µM.

Take `O=C(C[C@@H]1C/C=C/CCC(=O)N[C@H](c2ccc(Cl)cc2)COC1=O)NCc1ccc(Cl)cc1`: the IC50 came to 0.6 µM.

For the compound `O=C(C[C@@H]1C/C=C/CCC(=O)OCCNC1=O)NCc1ccc(Cl)cc1` [(S,E)-N-(4-chlorobenzyl)-2-(5,12-dioxo-1-oxa-4-azacyclododec-8-en-6-yl)acetamide], the IC50 is more than 25 µM.

The nature of the next assay: Inhibition of human Shh-induced mouse C3H10T1/2 cell differentiation after 48 hrs by alkaline phosphatase reporter assay.
`CC1=C2C[C@H]3[C@@H](CC=C4C[C@@H](O)CC[C@@]43C)[C@@H]2CC[C@]12O[C@@H]1C[C@H](C)CN[C@H]1[C@H]2C` returned an IC50 of 0.6 µM.

In the case of `O=C(C[C@@H]1C/C=C/CCC(=O)O[C@H](c2ccccc2)CNC1=O)NCc1ccc(Cl)cc1` [N-(4-chlorobenzyl)-2-((2R,6S,E)-5,12-dioxo-2-phenyl-1-oxa-4-azacyclododec-8-en-6-yl)acetamide], the IC50 is more than 25 µM.
